From patent US8969392B2, “Pesticide composition comprising propamocarb-fosetylate and an insecticidally active substance” (Bayer Cropscience AG, priority 2006, dated 2015)

How the values were obtained:
Phaedon cochleariae = Phaedon cochleariae test (cabbage leaf dip, larvae, mortality); assay type: in vivo; conditions: mortality after 4 days, cabbage leaves dipped
Protocol: (§1) To produce a suitable preparation of active compound, 1 part by weight of active compound is mixed with the stated amount of solvent and emulsifier, and the concentrate is diluted with emulsifier-containing water to the desired concentration.
Cabbage leaves (Brassica oleracea) are treated by being dipped into the preparation of the active compound at the desired concentration and are infested with larvae of the mustard beetle Phaedon cochleariae as long as the leaves are still moist.
After a period of time of 4 days, the mortality is determined. 100% means that all the […] have been killed; 0% means that none of the […] have been killed.

Plutella xylostella = Plutella xylostella test (cabbage leaf dip, larvae, mortality); assay type: in vivo; conditions: mortality after 6 days, cabbage leaves dipped
Protocol: as §1
Cabbage leaves (Brassica oleracea) are treated by being dipped into the preparation of the active compound at the desired concentration and are infested with larvae of the diamond black moth Plutella xylostella as long as the leaves are still moist.
After a period of time of 6 days, the mortality is determined. 100% means that all the caterpillars have been killed; 0% means that none of the caterpillars have been killed.

Plasmopara viticola = conditions: straight use of the compound; WO-99/42468; cited from earlier work
Myzus persicae = Myzus persicae test (cabbage leaf dip, mortality); assay type: in vivo; conditions: mortality after 6 days, cabbage leaves dipped
Protocol: as §1
Cabbage leaves (Brassica oleracea) which are heavily infested by the green peach aphid (Myzus persicae) are treated by being dipped into the preparation of the active compound at the desired concentration.
After a period of time of 6 days, the mortality is determined. 100% means that all the […] have been killed; 0% means that none of the […] have been killed.

O=[N+]([O-])NC1=NCCN1Cc1ccc(Cl)nc1 [Imidacloprid, imidacloprid]
Efficacy (%) (Phaedon cochleariae; rate of application 20 ppm): 80%

N#C/N=C1\SCCN1Cc1ccc(Cl)nc1 [thiacloprid]
Efficacy (%) (Plutella xylostella; rate of application 20 ppm): 20%

CCCOC(=O)NCCCN(C)C.CCO[PH](=O)O [Propamocarb-fosetylate, dimethyl-[3-(propoxycarbonylamino)propyl]ammonium-O-ethylphosphonate]
fungicide activity to control Plasmopara viticola (Plasmopara viticola): Some fungicide activity
Efficacy (%) (Plutella xylostella; rate of application 200 ppm): 0%
Efficacy (%) (Myzus persicae; rate of application 200 ppm): 0%
Efficacy (%) (Phaedon cochleariae; rate of application 200 ppm): 5%

CN/C(=N\[N+](=O)[O-])NCc1cnc(Cl)s1 [Clothianidin, clothianidin]
Efficacy (%) (Myzus persicae; rate of application 0.8 ppm): 75%
